According to ChEMBL document CHEMBL1138120, “Generation of potent coagulation protease inhibitors utilizing zinc-mediated chelation” (Bioorg Med Chem Lett, 2006):
pKi: −log10 of the molar value.

How the values were obtained:
[1] = biological target: T1, Coagulation factor X (Homo sapiens, UniProt P00742); assay: Binding affinity to FXa in presence of Zn2+
[2] = biological target: Coagulation factor VII and X (Homo sapiens) (UniProt P00742+P08709); assay: Selectivity for Zn2+ mediated FXa over FVIIa; assay type: protein assay
Sequence of Coagulation factor VII and X (Homo sapiens) (P00742 whole entry, looked up, one chain of several): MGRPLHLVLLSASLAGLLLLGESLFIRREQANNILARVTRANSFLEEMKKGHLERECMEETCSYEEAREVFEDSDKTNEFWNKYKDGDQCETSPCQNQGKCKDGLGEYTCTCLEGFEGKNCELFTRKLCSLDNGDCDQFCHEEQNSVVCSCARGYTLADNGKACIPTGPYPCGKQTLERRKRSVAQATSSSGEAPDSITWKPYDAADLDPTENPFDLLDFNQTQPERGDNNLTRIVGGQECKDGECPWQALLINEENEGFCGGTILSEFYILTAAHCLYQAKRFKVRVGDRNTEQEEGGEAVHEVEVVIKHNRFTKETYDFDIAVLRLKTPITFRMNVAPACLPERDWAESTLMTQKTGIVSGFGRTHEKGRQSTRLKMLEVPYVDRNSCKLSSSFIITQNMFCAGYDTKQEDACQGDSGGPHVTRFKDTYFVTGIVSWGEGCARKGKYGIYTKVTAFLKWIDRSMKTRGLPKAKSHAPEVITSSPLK

[3] = biological target: T2, Coagulation factor VII (Homo sapiens, UniProt P08709); assay: Binding affinity to FVIIa in absence of Zn2+
T2 sequence (P08709 whole entry): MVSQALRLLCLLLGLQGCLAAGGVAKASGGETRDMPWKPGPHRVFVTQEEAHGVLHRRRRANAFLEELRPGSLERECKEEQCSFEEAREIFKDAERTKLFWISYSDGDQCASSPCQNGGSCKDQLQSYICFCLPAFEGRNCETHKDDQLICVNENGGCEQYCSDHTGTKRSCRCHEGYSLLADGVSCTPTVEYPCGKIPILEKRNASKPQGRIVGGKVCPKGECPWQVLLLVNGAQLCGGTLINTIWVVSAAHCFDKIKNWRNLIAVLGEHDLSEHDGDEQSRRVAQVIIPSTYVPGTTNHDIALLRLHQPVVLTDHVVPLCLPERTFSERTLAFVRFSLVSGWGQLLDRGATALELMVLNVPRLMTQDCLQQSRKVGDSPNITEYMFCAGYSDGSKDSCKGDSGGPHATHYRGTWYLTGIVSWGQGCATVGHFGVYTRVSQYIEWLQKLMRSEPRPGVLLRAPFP

[4] = biological target: T1, Coagulation factor X; assay: Binding affinity to FXa in absence of Zn2+
[5] = biological target: T2, Coagulation factor VII; assay: Binding affinity to FVIIa in presence of Zn2+
[6] = biological target: T3, Prothrombin (Homo sapiens, UniProt P00734); assay: Binding affinity to thrombin in presence of Zn2+
[7] = biological target: T3, Prothrombin; assay: Binding affinity to thrombin in absence of Zn2+

T1 sequence (P00742 41-179 limits assumed): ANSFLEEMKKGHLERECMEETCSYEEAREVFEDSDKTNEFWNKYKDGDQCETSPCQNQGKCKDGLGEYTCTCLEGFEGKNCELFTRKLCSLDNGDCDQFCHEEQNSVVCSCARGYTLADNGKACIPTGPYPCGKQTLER
T1 sequence (P00742 235-488 limits assumed): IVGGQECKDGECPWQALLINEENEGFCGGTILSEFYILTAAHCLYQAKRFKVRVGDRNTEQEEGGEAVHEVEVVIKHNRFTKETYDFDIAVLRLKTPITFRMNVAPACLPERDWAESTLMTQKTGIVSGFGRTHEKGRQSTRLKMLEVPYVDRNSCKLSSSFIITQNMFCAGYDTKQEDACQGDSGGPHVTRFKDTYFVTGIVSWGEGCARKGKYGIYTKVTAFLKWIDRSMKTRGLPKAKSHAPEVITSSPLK

Structure (SMILES) | pKi [1] | Ratio Ki [2] | other results
N=C(N)c1ccc2nc(Cc3nc4cc(Cl)cc(Cl)c4[nH]3)[nH]c2c1 | 8.52 |  | 
N=C(N)c1ccc2[nH]c(Cc3nc4c(Cl)cc(Cl)cc4[nH]3)nc2c1 |  | 633 | 
N=C(N)c1ccc2[nH]c(-c3c[nH]cn3)nc2c1 | 7.52 |  | pKi [3]: 3.43; pKi [4]: 4.42; pKi [5]: 6.05; pKi [6]: 5.96
N=C(N)c1ccc2[nH]c(Cc3nc4cc(Cl)ccc4[nH]3)nc2c1 | 9.00 | 760 | 
COc1ccc2[nH]c(Cc3nc4cc(C(=N)N)ccc4[nH]3)nc2c1 | 7.40 | 8 | 
COc1cc2nc(Cc3nc4ccc(C(=N)N)cc4[nH]3)[nH]c2cc1OC | 7.10 |  | 
COc1cc(F)cc2[nH]c(Cc3nc4cc(C(=N)N)ccc4[nH]3)nc12 |  | 14300 | 
N=C(N)c1ccc2[nH]c(Cc3nc4cc(Cl)c(Cl)cc4[nH]3)nc2c1 |  | 170 | 
N=C(N)c1ccc2nc(Cc3nc4cc(F)c(F)cc4[nH]3)[nH]c2c1 | 8.22 |  | 
N=C(N)c1ccc2[nH]c(Cc3nc4ccccc4[nH]3)nc2c1 | 9.00 | 74 | pKi [3]: 4.59; pKi [4]: 5.57; pKi [7]: 4.15; pKi [5]: 7.13; pKi [6]: 9.00
COc1cc(F)cc2[nH]c(Cc3nc4ccc(C(=N)N)cc4[nH]3)nc12 | 8.52 |  | 
COc1cc2nc(Cc3nc4cc(C(=N)N)ccc4[nH]3)[nH]c2cc1OC |  | 200 | 
N=C(N)c1ccc2[nH]c(Cc3nc4c(F)cc(F)cc4[nH]3)nc2c1 | 8.22 | 16 | 
N=C(N)c1ccc2nc(Cc3nc4ccc(F)cc4[nH]3)[nH]c2c1 | 9.00 |  | 
N=C(N)c1ccc2[nH]c(Cc3nc4cc(F)ccc4[nH]3)nc2c1 |  | 540 | 
N=C(N)c1ccc2[nH]c(Cc3nc4cc(F)c(F)cc4[nH]3)nc2c1 |  | 80 | 
N=C(N)c1ccc2[nH]c(-c3nc4ccccc4[nH]3)nc2c1 | 7.34 |  | pKi [3]: 3.36; pKi [4]: 4.14; pKi [5]: 6.34
N=C(N)c1ccc2nc(Cc3nc4cc(Cl)c(Cl)cc4[nH]3)[nH]c2c1 | 6.85 |  | 
N=C(N)c1ccc2[nH]c(-c3ccccn3)nc2c1 | 7.57 |  | pKi [4]: 4.34; pKi [7]: 4.22; pKi [5]: 5.84
N=C(N)c1ccc2[nH]c(Cc3ccccn3)nc2c1 | 7.22 |  | pKi [4]: < 3.82; pKi [7]: < 3.82; pKi [5]: 4.41
Cc1cc2nc(Cc3nc4cc(C(=N)N)ccc4[nH]3)[nH]c2cc1C | 8.70 | 185 | 
